Test system: myrosinase (bglA, 6-phospho-β-glucosidase, GH1)
Assay: initial rates, Lineweaver-Burk plot
Assay type: biochemical, Bacillus sp. NGB-B10
Settings: 0.05 M phosphate buffer pH 7.0; 1-20 mM sinigrin; partially purified enzyme

With `C=CC/C(=N/OS(=O)(=O)O)S[C@@H]1O[C@H](CO)[C@@H](O)[C@H](O)[C@H]1O` [sinigrin] the Km was 2500 µM.
